Test results as given in US8471005B2 (Cephalon, Inc., priority 2008, dated 2013).

What was measured:
ALK = target: T1, ALK (Homo sapiens, UniProt Q9UM73); assay: ALK Kinase Assay (ELISA/TRF, PLC-γ substrate); assay type: biochemical; conditions: ALK kinase inhibition, 1 μM ATP; read-out: ALK Potency
T1 construct: host or cells: baculovirus expression system
Method in brief: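 PLC-γ coat 10 μg/mL in TBS; ALK 30 ng/ml added to start; 37° C, 15 min; Eu-N1 PT66 antibody detection (TRF). IC50: % inhibition vs log10 [cpd], variable-slope sigmoidal fit.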

JAK2 = target: T2, JAK2 (Homo sapiens, UniProt O60674); assay: Recombinant Human JAK2 Kinase Assay (TRF); assay type: biochemical; conditions: JAK2 kinase inhibition, 0.2 μM ATP; read-out: JAK2 Potency
T2 construct: host or cells: baculovirus expression system
T2 sequence (O60674 whole entry): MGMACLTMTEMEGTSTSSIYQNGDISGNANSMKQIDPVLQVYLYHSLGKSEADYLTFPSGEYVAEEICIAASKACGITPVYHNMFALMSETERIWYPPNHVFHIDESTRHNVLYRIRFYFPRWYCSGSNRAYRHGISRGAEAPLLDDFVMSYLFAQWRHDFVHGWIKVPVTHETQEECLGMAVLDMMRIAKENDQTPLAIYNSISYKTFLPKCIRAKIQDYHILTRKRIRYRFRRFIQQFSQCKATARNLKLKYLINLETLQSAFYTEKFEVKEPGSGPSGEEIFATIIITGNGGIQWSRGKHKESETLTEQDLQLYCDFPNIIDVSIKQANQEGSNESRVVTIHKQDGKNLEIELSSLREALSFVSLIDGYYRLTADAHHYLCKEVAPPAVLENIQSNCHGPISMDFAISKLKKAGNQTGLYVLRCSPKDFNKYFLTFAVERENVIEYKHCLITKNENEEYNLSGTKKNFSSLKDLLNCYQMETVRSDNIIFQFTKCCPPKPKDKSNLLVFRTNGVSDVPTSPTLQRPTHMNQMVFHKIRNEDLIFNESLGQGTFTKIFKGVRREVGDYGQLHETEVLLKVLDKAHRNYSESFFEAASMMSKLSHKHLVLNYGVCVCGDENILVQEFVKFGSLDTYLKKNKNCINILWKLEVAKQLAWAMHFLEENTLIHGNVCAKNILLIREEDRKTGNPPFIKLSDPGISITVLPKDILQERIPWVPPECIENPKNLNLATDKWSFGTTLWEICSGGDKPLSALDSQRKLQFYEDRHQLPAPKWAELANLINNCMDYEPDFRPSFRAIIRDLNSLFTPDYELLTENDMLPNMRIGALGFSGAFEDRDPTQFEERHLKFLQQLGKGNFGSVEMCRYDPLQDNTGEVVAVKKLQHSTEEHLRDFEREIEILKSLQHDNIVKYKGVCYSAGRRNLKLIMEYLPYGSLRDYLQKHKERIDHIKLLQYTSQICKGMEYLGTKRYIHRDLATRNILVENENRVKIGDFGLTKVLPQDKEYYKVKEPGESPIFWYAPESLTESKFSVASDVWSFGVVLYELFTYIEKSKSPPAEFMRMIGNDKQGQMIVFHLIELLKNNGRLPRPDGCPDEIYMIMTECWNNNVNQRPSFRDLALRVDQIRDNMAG
Method in brief: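 Europium-labelled PY100 antibody reported tyrosine phosphorylation of a Neutravidin-captured biotinyl 15-mer peptide by JAK2 (baculovirus-expressed, 15 ng/ml). Conditions: 20 mM HEPES pH 7.2, 0.2 μM ATP, 1 mM MnCl2, 0.1% BSA, DMSO 2.5% final, 20 min at room temperature.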

T1 sequence (Q9UM73 19-1620): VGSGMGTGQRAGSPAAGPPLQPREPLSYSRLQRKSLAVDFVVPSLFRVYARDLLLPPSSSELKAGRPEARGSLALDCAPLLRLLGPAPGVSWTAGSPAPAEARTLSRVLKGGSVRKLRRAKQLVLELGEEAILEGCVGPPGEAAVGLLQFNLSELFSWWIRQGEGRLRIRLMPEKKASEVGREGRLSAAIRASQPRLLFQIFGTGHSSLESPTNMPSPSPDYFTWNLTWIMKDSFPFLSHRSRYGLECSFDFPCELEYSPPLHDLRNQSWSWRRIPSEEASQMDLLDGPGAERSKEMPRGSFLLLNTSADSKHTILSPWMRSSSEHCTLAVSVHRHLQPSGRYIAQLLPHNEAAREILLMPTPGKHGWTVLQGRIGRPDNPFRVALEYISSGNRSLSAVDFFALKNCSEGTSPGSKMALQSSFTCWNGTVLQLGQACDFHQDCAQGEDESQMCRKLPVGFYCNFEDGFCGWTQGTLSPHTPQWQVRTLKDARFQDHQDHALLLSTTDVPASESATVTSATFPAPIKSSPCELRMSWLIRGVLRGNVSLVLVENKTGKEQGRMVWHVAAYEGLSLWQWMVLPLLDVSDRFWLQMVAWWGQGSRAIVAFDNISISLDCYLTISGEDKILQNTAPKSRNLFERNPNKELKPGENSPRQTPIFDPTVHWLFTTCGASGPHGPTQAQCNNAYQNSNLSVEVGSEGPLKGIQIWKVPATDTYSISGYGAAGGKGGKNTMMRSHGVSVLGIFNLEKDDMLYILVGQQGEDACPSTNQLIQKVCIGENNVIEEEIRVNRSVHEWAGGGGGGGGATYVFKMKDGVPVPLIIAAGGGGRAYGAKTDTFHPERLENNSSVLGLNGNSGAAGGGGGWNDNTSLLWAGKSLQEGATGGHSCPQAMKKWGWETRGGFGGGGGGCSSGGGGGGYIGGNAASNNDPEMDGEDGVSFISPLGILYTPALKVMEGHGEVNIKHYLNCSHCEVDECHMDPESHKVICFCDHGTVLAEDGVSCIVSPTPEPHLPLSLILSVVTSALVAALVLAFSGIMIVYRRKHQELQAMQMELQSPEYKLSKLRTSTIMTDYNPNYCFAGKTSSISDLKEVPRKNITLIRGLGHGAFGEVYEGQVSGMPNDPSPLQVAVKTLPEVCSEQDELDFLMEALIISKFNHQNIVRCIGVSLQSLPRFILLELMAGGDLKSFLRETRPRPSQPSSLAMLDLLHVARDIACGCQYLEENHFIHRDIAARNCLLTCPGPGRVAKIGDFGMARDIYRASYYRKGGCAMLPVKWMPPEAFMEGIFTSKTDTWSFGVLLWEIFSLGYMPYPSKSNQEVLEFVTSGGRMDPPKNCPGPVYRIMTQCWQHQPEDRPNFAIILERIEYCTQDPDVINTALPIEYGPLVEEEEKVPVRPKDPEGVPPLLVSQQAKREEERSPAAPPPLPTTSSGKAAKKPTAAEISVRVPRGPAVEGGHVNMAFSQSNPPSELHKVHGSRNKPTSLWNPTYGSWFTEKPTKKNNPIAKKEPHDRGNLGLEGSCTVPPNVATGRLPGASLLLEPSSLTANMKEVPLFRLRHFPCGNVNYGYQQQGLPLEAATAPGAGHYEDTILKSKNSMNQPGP

SMILES: CC(=O)N1CCc2ccc(Nc3ncc4ccc(-c5cccc(NC(=O)C(C)(C)C)c5)n4n3)cc21 [Example 882, N-{3-[2-(1-Acetyl-2,3-dihydro-1H-indol-6-ylamino)-pyrrolo[2,1-f][1,2,4]triazin-7-yl]-phenyl}-2,2-dimethyl-propionamide]
- IC50 (ALK): > 10 µM
- IC50 (JAK2): < 0.1 µM

SMILES: CN1CCN(c2cccc(Nc3ncc4ccc(-c5cccc(S(=O)(=O)NC(C)(C)C)c5)n4n3)c2)CC1 [Example 883, N-tert-Butyl-3-{2-[3-(4-methyl-piperazin-1-yl)-phenylamino]-pyrrolo[2,1-f][1,2,4]triazin-7-yl}-benzenesulfonamide]
- IC50 (ALK): < 0.1 µM
- IC50 (JAK2): < 0.1 µM

SMILES: CC(=O)Nc1cccc(Nc2ncc3ccc(-c4cccc(S(=O)(=O)N5CC[C@H](O)C5)c4)n3n2)c1 [Example 884, N-(3-{7-[3-((S)-3-Hydroxy-pyrrolidine-1-sulfonyl)-phenyl]-pyrrolo[2,1-f][1,2,4]triazin-2-ylamino}-phenyl)-acetamide]
- IC50 (ALK): 1 to 10 µM
- IC50 (JAK2): < 0.1 µM

SMILES: CC(=O)N1CCc2ccc(Nc3ncc4ccc(-c5cccc(S(=O)(=O)N6CC[C@H](O)C6)c5)n4n3)cc21 [Example 885, 1-(6-{7-[3-((S)-3-Hydroxy-pyrrolidine-1-sulfonyl)-phenyl]-pyrrolo[2,1-f][1,2,4]triazin-2-ylamino}-2,3-dihydro-indol-1-yl)-ethanone]
- IC50 (ALK): 1 to 10 µM
- IC50 (JAK2): < 0.1 µM

SMILES: CC(=O)Nc1cccc(Nc2ncc3ccc(-c4cccc(C(=O)NC(C)(C)C)c4)n3n2)c1 [Example 886, 3-[2-(3-Acetylamino-phenylamino)-pyrrolo[2,1-f][1,2,4]triazin-7-yl]-N-tert-butyl-benzamide]
- IC50 (ALK): 1 to 10 µM
- IC50 (JAK2): < 0.1 µM

SMILES: CC(=O)N1CCc2ccc(Nc3ncc4ccc(-c5cccc(C(=O)NC(C)(C)C)c5)n4n3)cc21 [Example 887, 3-[2-(1-Acetyl-2,3-dihydro-1H-indol-6-ylamino)-pyrrolo[2,1-f][1,2,4]triazin-7-yl]-N-tert-butyl-benzamide]
- IC50 (ALK): > 10 µM
- IC50 (JAK2): 0.1 to 1 µM

SMILES: CC(=O)Nc1cc(Nc2ncc3ccc(-c4cccc(S(=O)(=O)NC(C)(C)C)c4)n3n2)ccc1Cl [Example 888, N-{5-[7-(3-tert-Butylsulfamoyl-phenyl)-pyrrolo[2,1-f][1,2,4]triazin-2-ylamino]-2-chloro-phenyl}-acetamide]
- IC50 (ALK): 0.1 to 1 µM
- IC50 (JAK2): < 0.1 µM

SMILES: CC(C)(C)NS(=O)(=O)c1cccc(-c2ccc3cnc(Nc4cccc(NS(C)(=O)=O)c4)nn23)c1 [Example 889, N-tert-Butyl-3-[2-(3-methanesulfonylamino-phenylamino)-pyrrolo[2,1-f][1,2,4]triazin-7-yl]-benzenesulfonamide]
- IC50 (ALK): 0.1 to 1 µM
- IC50 (JAK2): < 0.1 µM

SMILES: CCOC(=O)c1cccc(Nc2ncc3ccc(-c4cccc(S(=O)(=O)NC(C)(C)C)c4)n3n2)c1 [Example 890, 3-[7-(3-tert-Butylsulfamoyl-phenyl)-pyrrolo[2,1f][1,2,4]triazin-2-ylamino]-benzoic acid ethyl ester]
- IC50 (ALK): > 10 µM
- IC50 (JAK2): < 0.1 µM

SMILES: CN1CCN(C(=O)c2cccc(Nc3ncc4ccc(-c5cccc(S(=O)(=O)NC(C)(C)C)c5)n4n3)c2)CC1 [Example 891, N-tert-Butyl-3-{2-[3-(4-methyl-piperazine-1-carbonyl)-phenylamino]-pyrrolo[2,1-f][1,2,4]triazin-7-yl}-benzenesulfonamide]
- IC50 (ALK): 0.1 to 1 µM
- IC50 (JAK2): < 0.1 µM

SMILES: CC(C)(C)NS(=O)(=O)c1cccc(-c2ccc3cnc(Nc4cccc(C(=O)N5CCOCC5)c4)nn23)c1 [Example 892, N-tert-Butyl-3-{2-[3-(morpholine-4-carbonyl)-phenylamino]-pyrrolo[2,1-f][1,2,4]triazin-7-yl}-benzenesulfonamide]
- IC50 (ALK): 1 to 10 µM
- IC50 (JAK2): < 0.1 µM

SMILES: CC(=O)Nc1cccc(Nc2ncc3ccc(-c4cccc(NCCS(C)(=O)=O)c4)n3n2)c1 [Example 893, N-(3-{7-[3-(2-Methanesulfonyl-ethylamino)-phenyl]-pyrrolo[2,1-f][1,2,4]triazin-2-ylamino}-phenyl)-acetamide]
- IC50 (ALK): 1 to 10 µM
- IC50 (JAK2): < 0.1 µM

SMILES: CN1CCN(c2cccc(Nc3ncc4ccc(-c5cccc(NCCS(C)(=O)=O)c5)n4n3)c2)CC1 [Example 894, {7-[3-(2-Methanesulfonyl-ethylamino)-phenyl]-pyrrolo[2,1-f][1,2,4]triazin-2-yl}-[3-(4-methyl-piperazin-1-yl)-phenyl]-amine]
- IC50 (ALK): 0.1 to 1 µM
- IC50 (JAK2): < 0.1 µM

SMILES: CC(C)(C)NS(=O)(=O)c1cccc(-c2ccc3cnc(Nc4cccc(C(=O)O)c4)nn23)c1 [Example 895, 3-[7-(3-tert-Butylsulfamoyl-phenyl)-pyrrolo[2,1-f][1,2,4]triazin-2-ylamino]-benzoic acid]
- IC50 (ALK): 1 to 10 µM
- IC50 (JAK2): < 0.1 µM

SMILES: CC(C)(C)NS(=O)(=O)c1cccc(-c2ccc3cnc(Nc4cccc(N)c4)nn23)c1 [Example 896, 3-[2-(3-Amino-phenylamino)-pyrrolo[2,1-f][1,2,4]triazin-7-yl]-N-tert-butyl-benzenesulfonamide]
- IC50 (ALK): 0.1 to 1 µM
- IC50 (JAK2): < 0.1 µM

SMILES: CN(C)CC(=O)Nc1cccc(Nc2ncc3ccc(-c4cccc(S(=O)(=O)NC(C)(C)C)c4)n3n2)c1 [Example 897, N-{3-[7-(3-tert-Butylsulfamoyl-phenyl)-pyrrolo[2,1-f][1,2,4]triazin-2-ylamino]-phenyl}-2-dimethylamino-acetamide]
- IC50 (ALK): < 0.1 µM
- IC50 (JAK2): < 0.1 µM

SMILES: COc1ccc(-c2ccc3cnc(Nc4cccc(N)c4)nn23)cn1 [Example 898, N-[7-(6-Methoxy-pyridin-3-yl)-pyrrolo[2,1-f][1,2,4]triazin-2-yl]-benzene-1,3-diamine]
- IC50 (ALK): 1 to 10 µM
- IC50 (JAK2): < 0.1 µM

SMILES: COc1ccc(-c2ccc3cnc(Nc4cccc(NC(=O)CN(C)C)c4)nn23)cn1 [Example 899, 2-Dimethylamino-N-{3-[7-(6-methoxy-pyridin-3-yl)-pyrrolo[2,1-f][1,2,4]triazin-2-ylamino]-phenyl}-acetamide]
- IC50 (ALK): 0.1 to 1 µM
- IC50 (JAK2): < 0.1 µM

SMILES: COc1ccc(-c2ccc3cnc(Nc4cccc(NC(=O)[C@@H](C)OC)c4)nn23)cn1 [Example 900, (R)-2-Methoxy-N-{3-[7-(6-methoxy-pyridin-3-yl)-pyrrolo[2,1-f][1,2,4]triazin-2-ylamino]-phenyl}-propionamide]
- IC50 (ALK): 0.1 to 1 µM
- IC50 (JAK2): < 0.1 µM

SMILES: CCNC(=O)Nc1cccc(Nc2ncc3ccc(-c4ccc(OC)nc4)n3n2)c1 [Example 901, 1-Ethyl-3-{3-[7-(6-methoxy-pyridin-3-yl)-pyrrolo[2,1-f][1,2,4]triazin-2-ylamino]-phenyl}-urea]
- IC50 (ALK): > 10 µM
- IC50 (JAK2): < 0.1 µM

SMILES: CN1CCC(c2ccc(Nc3ncc4ccc(-c5cccc(S(=O)(=O)N(C)C)c5)n4n3)cc2)CC1 [Example 902, N,N-Dimethyl-3-{2-[4-(1-methyl-piperidin-4-yl)phenylamino]-pyrrolo[2,1-f][1,2,4]triazin-7-yl}-benzenesulfonamide]
- IC50 (ALK): 0.1 to 1 µM
- IC50 (JAK2): < 0.1 µM

SMILES: CN1CCC(c2ccc(Nc3ncc4ccc(-c5cccc(S(=O)(=O)N6CCCC6)c5)n4n3)cc2)CC1 [Example 903, [4-(1-Methyl-piperidin-4-yl)-phenyl]-{7-[3-(pyrrolidine-1-sulfonyl)-phenyl]-pyrrolo[2,1-f][1,2,4]triazin-2-yl}-amine]
- IC50 (ALK): 0.1 to 1 µM
- IC50 (JAK2): < 0.1 µM
